Results as given in the supplement of paper PMC7661543.
± gives the standard deviation of the averaged measurements.

Key:
Test in all cases: relative cell number vs DMSO control (72 h) (% of DMSO); higher = less growth inhibition (more cells)
Conditions in all cases: sgRNA knockout: sgNT
MDA-MB-231 = test system: MDA-MB-231
Protocol: (§1)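 QMAP-Seq: a pool of 5 breast cancer cell lines (ZR-75-1, SKBR3, HCC-38, MDA-MB-231, BT-20), each carrying 12 doxycycline-inducible Cas9 sgRNA perturbations (11 knockouts plus non-targeting sgNT), was treated with compounds for 72 h at four 10-fold doses (10 nM-10 uM or 1 nM-1 uM range). Barcodes were amplified and sequenced, and cell number was interpolated from 293T spike-in standard curves. The result is expressed as % of the median of DMSO wells. Two biological replicates.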

SKBR3 = test system: SKBR3
Protocol: as §1

HCC-38 = test system: HCC-38
Protocol: as §1

BT-20 = test system: BT-20
Protocol: as §1

ZR-75-1 = test system: ZR-75-1
Protocol: as §1

| Compound | relative cell number (MDA-MB-231; 10 nM) | relative cell number (MDA-MB-231; 100 nM) | relative cell number (MDA-MB-231; 1000 nM) | relative cell number (MDA-MB-231; 10000 nM) | relative cell number (SKBR3; 10 nM) | relative cell number (SKBR3; 100 nM) | relative cell number (SKBR3; 1000 nM) | relative cell number (SKBR3; 10000 nM) | relative cell number (HCC-38; 10 nM) | relative cell number (HCC-38; 100 nM) | relative cell number (HCC-38; 1000 nM) | relative cell number (HCC-38; 10000 nM) | relative cell number (BT-20; 10 nM) | relative cell number (BT-20; 100 nM) | relative cell number (BT-20; 1000 nM) | relative cell number (BT-20; 10000 nM) | relative cell number (ZR-75-1; 10 nM) | relative cell number (ZR-75-1; 100 nM) | relative cell number (ZR-75-1; 1000 nM) | relative cell number (ZR-75-1; 10000 nM) | relative cell number (MDA-MB-231; 1 nM) | relative cell number (SKBR3; 1 nM) | relative cell number (HCC-38; 1 nM) | relative cell number (BT-20; 1 nM) | relative cell number (ZR-75-1; 1 nM) |
| --- | --- | --- | --- | --- | --- | --- | --- | --- | --- | --- | --- | --- | --- | --- | --- | --- | --- | --- | --- | --- | --- | --- | --- | --- | --- |
| Nc1nc(Cl)nc2c1ncn2[C@@H]1O[C@H](CO)[C@@H](O)[C@@H]1F [Clofarabine] | 82.8 ± 26 | 30 ± 7.7 | 12 ± 1.1 | 22.7 ± 0.75 | 65.5 ± 37 | 45.5 ± 1.9 | 10.2 ± 1.7 | 8.24 ± 1.4 | 98.6 ± 18 | 25.9 ± 0.79 | 12.6 ± 1.4 | 12.4 ± 6.4 | 103 ± 44 | 73.9 ± 4.4 | 27 ± 2.8 | 26.5 ± 1.5 | 72.7 ± 31 | 63.6 ± 9.1 | 22.1 ± 3.6 | 25.4 ± 15 |  |  |  |  |  |
| Cc1onc(-c2ccccc2)c1-c1ccc(S(N)(=O)=O)cc1 [Valdecoxib] | 100 ± 22 | 113 ± 13 | 87.1 ± 4.7 | 82.6 ± 1.5 | 76.8 ± 16 | 86.5 ± 37 | 88.5 ± 38 | 124 ± 34 | 111 ± 12 | 91.8 ± 8.2 | 99.8 ± 13 | 98.4 ± 16 | 101 ± 5.5 | 107 ± 17 | 102 ± 21 | 99.62 ± 0.51 | 95.3 ± 73 | 76.8 ± 16 | 102 ± 37 | 112 ± 1.4 |  |  |  |  |  |
| CNC(=O)c1cc(Oc2ccc(NC(=O)Nc3ccc(Cl)c(C(F)(F)F)c3)c(F)c2)ccn1 [Regorafenib] | 102 ± 13 | 114.3 ± 0.95 | 94.3 ± 26 | 32.7 ± 7.6 | 84.4 ± 8.2 | 98.8 ± 11 | 101 ± 16 | 38.2 ± 5 | 105.7 ± 0.71 | 113 ± 7.7 | 110 ± 2.3 | 61.9 ± 11 | 94.2 ± 7.3 | 94.9 ± 19 | 116 ± 46 | 42.7 ± 9.8 | 81.3 ± 52 | 68.8 ± 21 | 98.2 ± 40 | 22.1 ± 1.5 |  |  |  |  |  |
| COc1cc2c(Oc3ccc4[nH]c(C)cc4c3F)ncnc2cc1OCCCN1CCCC1 [Cediranib] | 91.3 ± 3.8 | 114 ± 20 | 104 ± 33 | 15.9 ± 2.8 | 103 ± 25 | 85.8 ± 14 | 113 ± 29 | 11.1 ± 1.2 | 108 ± 8.3 | 100 ± 1.8 | 59.3 ± 0.64 | 9.73 ± 0.54 | 104 ± 8.7 | 100 ± 29 | 104 ± 9 | 27.9 ± 8.5 | 113 ± 5.5 | 87.5 ± 7.5 | 86.3 ± 5.5 | 10.9 ± 2.5 |  |  |  |  |  |
| CC(C)c1cc(-c2n[nH]c(=O)n2-c2ccc3c(ccn3C)c2)c(O)cc1O [Ganetespib] | 88.7 ± 21 | 13.7 ± 1.3 | 11.4 ± 7.9 |  | 75.4 ± 13 | 24.1 ± 5.2 | 30.5 ± 9.4 |  | 94.7 ± 2.2 | 26.6 ± 1.2 | 18.5 ± 2.5 |  | 89.9 ± 2.6 | 44.8 ± 0.61 | 48.5 ± 11 |  | 83.6 ± 40 | 18 ± 1.4 | 27.2 ± 3.3 |  | 88.2 ± 21 | 73.1 ± 28 | 91 ± 2.5 | 96.6 ± 15 | 96.883 ± 0.01 |
| COCC[n+]1c2c(n(Cc3cnccn3)c1C)C(=O)c1ccccc1C2=O [YM155] | 27.1 ± 0.85 | 6.58 ± 1.3 | 4.86 ± 1.3 |  | 62.2 ± 7.2 | 6.9 ± 0.62 | 4.71 ± 4.5 |  | 20.2 ± 2 | 4.12 ± 0.77 | 5.13 ± 0.38 |  | 41.8 ± 5 | 4.66 ± 1.7 | 5.07 ± 2.5 |  | 23.9 ± 13 | 6.08 ± 4.9 | 3.11 ± 2.6 |  | 75.1 ± 3.9 | 79.4 ± 20 | 54.7 ± 3.2 | 88.6 ± 16 | 87.2 ± 46 |
| Fc1ccc(CNc2ncnc3ccc(F)cc23)cc1 [Spautin1] | 124 ± 29 | 97 ± 34 | 77.7 ± 26 | 74.8 ± 8 | 87.9 ± 40 | 85.3 ± 0.86 | 87.4 ± 8.4 | 92 ± 23 | 104 ± 8 | 99.2 ± 11 | 111 ± 3.9 | 106 ± 1.6 | 96.8 ± 34 | 86 ± 36 | 89.8 ± 13 | 88.6 ± 19 | 55.6 ± 14 | 70.6 ± 3.6 | 94.4 ± 13 | 49.3 ± 9.3 |  |  |  |  |  |
| Cn1cnc2c(F)c(Nc3ccc(Br)cc3Cl)c(C(=O)NOCCO)cc21 [Selumetinib] | 88.9 ± 25 | 74.2 ± 37 | 96.3 ± 23 | 57.1 ± 36 | 97.8 ± 51 | 90.1 ± 60 | 103 ± 8.6 | 73.3 ± 5.1 | 96.6 ± 6.1 | 85.3 ± 4.4 | 84.4 ± 8.8 | 92.3 ± 3.6 | 80.6 ± 8.9 | 67 ± 3.8 | 99.2 ± 31 | 80.9 ± 20 | 71 ± 10 | 67 ± 25 | 67.5 ± 21 | 59.2 ± 5.8 |  |  |  |  |  |
| COc1cc(C(=O)N2CCC(N3CCN(C)CC3)CC2)ccc1Nc1ncc2c(n1)N(C)c1ccccc1C(=O)N2C [LRRK2IN1] | 123 ± 3.5 | 96.6 ± 1.3 | 44.2 ± 7.9 | 16 ± 2.8 | 111 ± 44 | 70.9 ± 6 | 71 ± 31 | 32.9 ± 13 | 100 ± 8.9 | 84.8 ± 7 | 67.3 ± 4 | 42.4 ± 1.1 | 116 ± 14 | 93.7 ± 7.9 | 93.8 ± 15 | 38.2 ± 4 | 106 ± 7 | 152 ± 59 | 69.4 ± 3 | 19.1 ± 5.2 |  |  |  |  |  |
| Cc1[nH]c(/C=C2\C(=O)Nc3ccc(S(=O)(=O)N(C)c4cccc(Cl)c4)cc32)c(C)c1C(=O)N1CCN(C)CC1 | 134 ± 62 | 94.8 ± 19 | 95.3 ± 23 | 42.5 ± 11 | 90.1 ± 7.7 | 102 ± 8.9 | 87.4 ± 16 | 59.6 ± 16 | 109 ± 14 | 92.58 ± 0.79 | 90.6 ± 7.8 | 55.2 ± 1.4 | 89.8 ± 4.6 | 95 ± 19 | 74.8 ± 2.8 | 60.9 ± 35 | 95.1 ± 14 | 97.4 ± 3.6 | 54 ± 27 | 37.5 ± 6 |  |  |  |  |  |
| O=c1[nH]cc(F)c(=O)[nH]1 [5-Fluorouracil] | 86.6 ± 16 | 113 ± 28 | 119 ± 16 | 49.2 ± 6.5 | 97.9 ± 14 | 79.7 ± 19 | 65.4 ± 18 | 17.5 ± 3.4 | 95.2 ± 6.8 | 121 ± 15 | 107 ± 21 | 66.2 ± 6.2 | 115 ± 7.9 | 110 ± 3.4 | 78.4 ± 7 | 57.9 ± 2.7 | 103 ± 28 | 83.2 ± 13 | 51.6 ± 1.8 | 41 ± 11 |  |  |  |  |  |
| COc1cc(OC)c(/C=C/S(=O)(=O)Cc2ccc(OC)c(NCC(=O)O)c2)c(OC)c1 [Rigosertib] | 97.2 ± 1.3 | 94.6 ± 9.7 | 22.9 ± 3.4 | 21.6 ± 4.6 | 88.9 ± 21 | 5.08 ± 2.9 | 11 ± 1 | 11.1 ± 1.8 | 96.39 ± 0.69 | 44.2 ± 2.3 | 26.9 ± 2.6 | 24.8 ± 2.4 | 96.5 ± 1.7 | 70.2 ± 4 | 29.8 ± 11 | 29.5 ± 3.1 | 115 ± 13 | 18.8 ± 0.89 | 16.6 ± 2.9 | 16.3 ± 4.1 |  |  |  |  |  |
